Key:
Test in all cases: radiometric filter-binding kinase assay, Kinaseprofiler
[1] = tested on: HIPK2 (human), Q9H2X6 [I471N]; details: ATP 10 µM
[2] = tested on: TGFBR1 (human), P36897 [T204D]; details: ATP 10 µM
[3] = tested on: FLT4 (human), P35916 [V1128L/H1146R]; details: ATP 200 µM
[4] = tested on: PRKD1 (human), Q15139 [R135A]; details: ATP 45 µM
[5] = tested on: BLK (human), P51451 [M278V]; details: ATP 45 µM
[6] = tested on: MET (human), P08581 [A1209G/V1290L]; details: ATP 45 µM
[7] = tested on: PAK2 (human), Q13177 [L150F, P225T, V383I; A339 del]; details: ATP 90 µM
PAK2 (human), Q13177 [L150F, P225T, V383I; A339 del], sequence (Q13177 whole entry, looked up, stated change not applied): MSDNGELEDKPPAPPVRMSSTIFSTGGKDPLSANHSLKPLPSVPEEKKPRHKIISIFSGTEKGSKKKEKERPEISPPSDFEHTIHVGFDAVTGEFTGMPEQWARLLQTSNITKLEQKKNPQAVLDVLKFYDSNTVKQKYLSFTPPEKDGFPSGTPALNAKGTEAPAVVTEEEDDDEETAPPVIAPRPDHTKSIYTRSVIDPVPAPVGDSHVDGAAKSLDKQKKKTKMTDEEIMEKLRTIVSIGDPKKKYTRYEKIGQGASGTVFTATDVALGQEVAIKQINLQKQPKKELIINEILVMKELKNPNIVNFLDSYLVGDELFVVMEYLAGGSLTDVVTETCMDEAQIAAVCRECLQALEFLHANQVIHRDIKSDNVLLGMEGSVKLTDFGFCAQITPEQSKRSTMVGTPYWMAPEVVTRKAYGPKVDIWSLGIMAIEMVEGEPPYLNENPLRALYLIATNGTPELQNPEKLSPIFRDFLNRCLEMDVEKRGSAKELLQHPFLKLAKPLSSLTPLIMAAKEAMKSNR

FLT4 (human), P35916 [V1128L/H1146R], sequence (P35916 whole entry, looked up, stated change not applied): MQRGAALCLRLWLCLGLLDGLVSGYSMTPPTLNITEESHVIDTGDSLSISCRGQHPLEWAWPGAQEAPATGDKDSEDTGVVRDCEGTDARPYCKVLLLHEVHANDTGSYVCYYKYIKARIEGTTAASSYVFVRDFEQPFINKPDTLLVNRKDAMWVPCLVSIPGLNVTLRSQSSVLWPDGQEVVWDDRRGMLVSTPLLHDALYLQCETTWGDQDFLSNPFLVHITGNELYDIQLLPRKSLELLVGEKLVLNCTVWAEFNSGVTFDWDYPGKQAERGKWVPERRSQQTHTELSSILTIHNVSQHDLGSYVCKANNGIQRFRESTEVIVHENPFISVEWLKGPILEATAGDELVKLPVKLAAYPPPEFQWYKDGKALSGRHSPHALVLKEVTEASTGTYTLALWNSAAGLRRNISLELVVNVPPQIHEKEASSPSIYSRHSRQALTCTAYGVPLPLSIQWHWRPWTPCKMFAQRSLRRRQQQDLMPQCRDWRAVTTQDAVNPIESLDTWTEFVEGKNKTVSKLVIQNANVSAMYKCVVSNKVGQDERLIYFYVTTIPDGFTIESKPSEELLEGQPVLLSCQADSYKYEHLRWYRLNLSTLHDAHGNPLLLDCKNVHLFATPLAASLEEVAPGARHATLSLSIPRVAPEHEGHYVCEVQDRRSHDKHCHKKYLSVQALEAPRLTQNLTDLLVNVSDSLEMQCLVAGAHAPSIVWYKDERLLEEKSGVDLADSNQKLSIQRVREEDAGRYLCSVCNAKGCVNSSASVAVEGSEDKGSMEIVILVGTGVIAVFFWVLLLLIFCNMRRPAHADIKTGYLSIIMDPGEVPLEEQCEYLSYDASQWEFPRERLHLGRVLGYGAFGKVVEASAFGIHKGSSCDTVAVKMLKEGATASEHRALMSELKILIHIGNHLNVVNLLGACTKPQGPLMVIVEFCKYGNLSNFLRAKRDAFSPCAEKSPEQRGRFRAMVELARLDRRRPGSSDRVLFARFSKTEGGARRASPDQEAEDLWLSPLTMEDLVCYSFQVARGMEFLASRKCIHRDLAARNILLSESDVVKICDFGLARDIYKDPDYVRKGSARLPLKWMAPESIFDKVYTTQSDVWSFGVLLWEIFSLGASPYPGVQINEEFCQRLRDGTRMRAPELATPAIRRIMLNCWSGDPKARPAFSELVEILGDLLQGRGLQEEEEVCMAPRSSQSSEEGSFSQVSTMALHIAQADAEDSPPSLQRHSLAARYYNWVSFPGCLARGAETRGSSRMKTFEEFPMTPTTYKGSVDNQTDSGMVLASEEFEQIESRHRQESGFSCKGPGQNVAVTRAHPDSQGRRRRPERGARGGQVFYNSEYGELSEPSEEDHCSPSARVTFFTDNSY
TGFBR1 (human), P36897 [T204D], sequence (P36897 whole entry T204D, looked up): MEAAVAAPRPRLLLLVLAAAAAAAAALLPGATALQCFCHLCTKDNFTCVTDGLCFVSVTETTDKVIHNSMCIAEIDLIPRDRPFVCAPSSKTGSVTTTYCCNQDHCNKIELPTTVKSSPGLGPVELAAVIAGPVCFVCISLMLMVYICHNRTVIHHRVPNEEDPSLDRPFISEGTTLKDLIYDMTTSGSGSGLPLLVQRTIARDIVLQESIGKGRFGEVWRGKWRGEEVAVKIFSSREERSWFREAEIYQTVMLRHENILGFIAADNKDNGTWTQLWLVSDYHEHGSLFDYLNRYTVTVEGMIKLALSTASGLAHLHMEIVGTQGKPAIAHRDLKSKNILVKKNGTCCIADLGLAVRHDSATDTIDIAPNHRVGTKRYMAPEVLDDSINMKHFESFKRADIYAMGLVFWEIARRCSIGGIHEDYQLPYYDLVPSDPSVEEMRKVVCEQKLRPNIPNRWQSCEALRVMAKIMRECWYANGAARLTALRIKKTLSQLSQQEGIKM
HIPK2 (human), Q9H2X6 [I471N], sequence (Q9H2X6 whole entry, looked up, stated change not applied): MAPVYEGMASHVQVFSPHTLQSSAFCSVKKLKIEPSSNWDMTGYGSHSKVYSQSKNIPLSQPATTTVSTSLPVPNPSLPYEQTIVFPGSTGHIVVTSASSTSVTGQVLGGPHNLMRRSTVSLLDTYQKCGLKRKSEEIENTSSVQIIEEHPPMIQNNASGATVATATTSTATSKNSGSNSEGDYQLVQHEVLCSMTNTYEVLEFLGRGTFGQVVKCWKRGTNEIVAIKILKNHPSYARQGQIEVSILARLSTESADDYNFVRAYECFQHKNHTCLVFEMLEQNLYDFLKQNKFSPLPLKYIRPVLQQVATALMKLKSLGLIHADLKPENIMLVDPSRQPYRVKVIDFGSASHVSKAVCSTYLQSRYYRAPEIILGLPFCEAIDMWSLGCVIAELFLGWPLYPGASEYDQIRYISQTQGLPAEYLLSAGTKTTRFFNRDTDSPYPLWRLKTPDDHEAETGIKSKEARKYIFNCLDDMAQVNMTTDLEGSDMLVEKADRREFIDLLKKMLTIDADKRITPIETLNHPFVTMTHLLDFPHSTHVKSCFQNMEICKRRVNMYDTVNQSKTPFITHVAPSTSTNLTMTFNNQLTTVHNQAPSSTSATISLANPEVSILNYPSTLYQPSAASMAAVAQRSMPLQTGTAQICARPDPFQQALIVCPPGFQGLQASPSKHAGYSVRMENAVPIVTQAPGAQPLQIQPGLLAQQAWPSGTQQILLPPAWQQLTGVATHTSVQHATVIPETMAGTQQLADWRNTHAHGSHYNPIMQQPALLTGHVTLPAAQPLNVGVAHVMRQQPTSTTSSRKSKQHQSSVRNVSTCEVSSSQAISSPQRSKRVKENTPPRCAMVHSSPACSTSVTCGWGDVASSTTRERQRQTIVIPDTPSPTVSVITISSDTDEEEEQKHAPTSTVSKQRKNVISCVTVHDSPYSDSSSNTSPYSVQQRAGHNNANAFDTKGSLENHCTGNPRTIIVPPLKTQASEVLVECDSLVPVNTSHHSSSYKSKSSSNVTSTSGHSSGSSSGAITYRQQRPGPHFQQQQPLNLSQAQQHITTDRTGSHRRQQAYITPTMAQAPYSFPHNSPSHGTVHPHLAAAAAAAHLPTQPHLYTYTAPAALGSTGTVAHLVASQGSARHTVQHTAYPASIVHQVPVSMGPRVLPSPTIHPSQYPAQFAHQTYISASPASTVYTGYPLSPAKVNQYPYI
PRKD1 (human), Q15139 [R135A], sequence (Q15139 whole entry, looked up, stated change not applied): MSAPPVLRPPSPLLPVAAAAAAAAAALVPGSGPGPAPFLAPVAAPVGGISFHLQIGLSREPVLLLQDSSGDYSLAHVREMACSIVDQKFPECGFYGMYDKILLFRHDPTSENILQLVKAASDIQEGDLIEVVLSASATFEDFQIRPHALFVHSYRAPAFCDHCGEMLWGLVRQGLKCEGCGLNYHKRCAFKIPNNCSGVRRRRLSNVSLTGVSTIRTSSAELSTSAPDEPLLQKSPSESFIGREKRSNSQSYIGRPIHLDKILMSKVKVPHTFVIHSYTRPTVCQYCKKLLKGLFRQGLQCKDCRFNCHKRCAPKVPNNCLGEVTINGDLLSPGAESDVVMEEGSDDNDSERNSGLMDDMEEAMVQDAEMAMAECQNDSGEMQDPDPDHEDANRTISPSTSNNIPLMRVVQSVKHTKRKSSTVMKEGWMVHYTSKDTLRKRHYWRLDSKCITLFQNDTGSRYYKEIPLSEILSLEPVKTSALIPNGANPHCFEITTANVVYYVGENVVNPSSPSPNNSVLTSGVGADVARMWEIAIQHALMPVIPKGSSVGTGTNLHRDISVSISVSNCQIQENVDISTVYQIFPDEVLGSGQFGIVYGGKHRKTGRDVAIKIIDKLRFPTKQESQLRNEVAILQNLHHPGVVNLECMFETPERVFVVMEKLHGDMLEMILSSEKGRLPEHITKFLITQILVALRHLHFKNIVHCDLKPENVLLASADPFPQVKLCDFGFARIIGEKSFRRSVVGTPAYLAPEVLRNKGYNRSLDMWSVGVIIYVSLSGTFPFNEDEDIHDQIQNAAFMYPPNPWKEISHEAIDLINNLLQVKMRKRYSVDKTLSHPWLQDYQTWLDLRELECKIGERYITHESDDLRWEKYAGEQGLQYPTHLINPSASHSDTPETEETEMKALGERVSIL
BLK (human), P51451 [M278V], sequence (P51451 whole entry, looked up, stated change not applied): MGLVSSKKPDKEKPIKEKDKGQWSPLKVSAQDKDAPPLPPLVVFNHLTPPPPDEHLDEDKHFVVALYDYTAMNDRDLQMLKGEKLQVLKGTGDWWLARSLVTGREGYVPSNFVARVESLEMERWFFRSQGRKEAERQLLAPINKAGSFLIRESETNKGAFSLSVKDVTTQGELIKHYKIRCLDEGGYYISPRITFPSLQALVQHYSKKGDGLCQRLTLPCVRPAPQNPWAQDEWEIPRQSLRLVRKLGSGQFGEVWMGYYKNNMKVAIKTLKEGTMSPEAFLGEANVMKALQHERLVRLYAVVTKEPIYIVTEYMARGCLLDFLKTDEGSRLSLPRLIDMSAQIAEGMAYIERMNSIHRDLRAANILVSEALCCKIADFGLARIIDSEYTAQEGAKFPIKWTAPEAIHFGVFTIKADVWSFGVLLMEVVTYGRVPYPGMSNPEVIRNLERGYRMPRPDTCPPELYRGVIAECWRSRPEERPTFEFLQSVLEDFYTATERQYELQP

Row | Compound | residual activity ([1]; compound 1.0 µM) [%] | residual activity ([2]; compound 1.0 µM) [%] | residual activity ([2]; compound 10.0 µM) [%] | residual activity ([1]; compound 10.0 µM) [%] | residual activity ([3]; compound 1.0 µM) [%] | residual activity ([3]; compound 10.0 µM) [%] | residual activity ([4]; compound 1.0 µM) [%] | residual activity ([4]; compound 10.0 µM) [%] | residual activity ([5]; compound 1.0 µM) [%] | residual activity ([5]; compound 10.0 µM) [%] | residual activity ([6]; compound 1.0 µM) [%] | residual activity ([6]; compound 10.0 µM) [%] | residual activity ([7]; compound 1.0 µM) [%] | residual activity ([7]; compound 10.0 µM) [%]
1 | CN[C@@H]1C[C@H]2O[C@@](C)([C@@H]1OC)n1c3ccccc3c3c4c(c5c6ccccc6n2c5c31)C(=O)NC4 | 52 | – | – | – | – | – | – | – | – | – | – | – | – | –
2 | O=C1Nc2ccccc2/C1=C1\Nc2ccccc2\C1=N/O | 48 | 104 | 73 | 8 | -1 | 1 | 113 | 65 | 11 | 0 | 86 | 13 | 103 | 54
3 | O=C(Nc1cccc(Nc2nccc(Nc3cccc(C(F)(F)F)c3)n2)c1)C1CC1 | – | – | – | – | – | – | – | – | – | – | – | – | 100 | –
4 | O=C1c2ccccc2-c2n[nH]c3cccc1c23 | 55 | 88 | 74 | 15 | 2 | 0 | 32 | -1 | 97 | 45 | 87 | 75 | 96 | 86

Reference: the kinase profiling compilation of Christmann-Franck et al. (2016)
